Assay results as given in ChEMBL document CHEMBL3580643, “Structure-Activity Relationships of Neplanocin A Analogues as S-Adenosylhomocysteine Hydrolase Inhibitors and Their Antiviral and Antitumor Activities” (J Med Chem, 2015).

How the values were obtained:
PC-3 = assay: Cytotoxicity against human PC3 cells assessed as inhibition of cell proliferation after 72 hrs by sulforhodamine B assay; format: functional, cell-based; conditions: PC-3, 72 h
[1] = Cytotoxicity against human SNU638 cells assessed as inhibition of cell proliferation after 72 hrs by sulforhodamine B assay; format: functional, cell-based; conditions: SNU-638, 72 h
MDA-MB-231 = assay: Cytotoxicity against human MDA-MB-231 cells assessed as inhibition of cell proliferation after 72 hrs by sulforhodamine B assay; format: functional, cell-based; conditions: MDA-MB-231, 72 h
HCT-116 = assay: Cytotoxicity against human HCT116 cells assessed as inhibition of cell proliferation after 72 hrs by sulforhodamine B assay; format: functional, cell-based; conditions: HCT-116, 72 h
A549 = assay: Cytotoxicity against human A549 cells assessed as inhibition of cell proliferation after 72 hrs by sulforhodamine B assay; format: functional, cell-based; conditions: A549, 72 h
Adenosylhomocysteinase = Adenosylhomocysteinase (Homo sapiens, UniProt P23526); assay: Inhibition of recombinant human placental AdoHcy hydrolase expressed in Escherichia coli BL21 using AdoHcy as substrate preincubated for 10 mins followed by substrate addition measured after 20 mins by DTNB coupled assay
Sequence of Adenosylhomocysteinase (P23526 whole entry): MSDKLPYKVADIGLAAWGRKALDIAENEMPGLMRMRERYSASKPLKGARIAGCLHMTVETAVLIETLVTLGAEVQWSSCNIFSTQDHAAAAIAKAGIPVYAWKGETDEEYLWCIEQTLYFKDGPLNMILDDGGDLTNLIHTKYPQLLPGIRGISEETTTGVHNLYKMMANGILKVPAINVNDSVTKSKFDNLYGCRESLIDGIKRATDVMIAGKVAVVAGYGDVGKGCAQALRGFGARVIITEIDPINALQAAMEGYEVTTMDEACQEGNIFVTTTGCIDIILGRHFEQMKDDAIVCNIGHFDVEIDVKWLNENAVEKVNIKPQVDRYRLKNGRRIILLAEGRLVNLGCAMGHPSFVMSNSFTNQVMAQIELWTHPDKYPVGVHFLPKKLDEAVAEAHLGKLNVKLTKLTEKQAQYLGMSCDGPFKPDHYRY

[2] = Cytotoxicity against human SKHEP1 cells assessed as inhibition of cell proliferation after 72 hrs by sulforhodamine B assay; format: functional, cell-based; conditions: SK-HEP1, 72 h
[3] = Cytotoxicity against CB1 cells (unknown origin) assessed as cell viability up to 100 uM after 3 days by MTT assay; format: cell-based; conditions: cb1, 72 h
Picornaviridae = assay: Antiviral activity against picornavirus infected in CB1 cells assessed as inhibition of viral replication after 3 days by MTT assay; format: functional, organism-based; conditions: CB1, 72 h
HeLa = assay: Cytotoxicity against human HeLa cells assessed as cell viability up to 40 uM after 3 days by MTT assay; format: cell-based; conditions: 72 h
[4] = tested on: Vesicular stomatitis virus; assay: Antiviral activity against vesicular stomatitis virus infected in human HeLa cells assessed as inhibition of viral replication after 3 days by MTT assay; format: functional, organism-based; conditions: 72 h

Work on `CNc1ncnc2c1ccn2[C@@H]1C=C(CO)[C@@H](O)[C@H]1O` yielded an IC50 (PC-3) greater than 100 µM, an IC50 [1] greater than 100 µM and an IC50 (MDA-MB-231) of 49.5 µM. It also gave an IC50 (HCT-116) greater than 100 µM, an IC50 (A549) greater than 100 µM and an IC50 (Adenosylhomocysteinase) greater than 100 µM. For the same compound, the IC50 [2] was 99.2 µM.

In the case of `OCC1=C[C@@H](n2ccc3c(O)ncnc32)[C@H](O)[C@@H]1O`, the IC50 (PC-3) is reported as greater than 100 µM, the IC50 [1] is reported as greater than 100 µM and the IC50 (MDA-MB-231) is reported as greater than 100 µM. For the same compound, the IC50 (HCT-116) was greater than 100 µM, the IC50 (A549) was greater than 100 µM and the IC50 (Adenosylhomocysteinase) was greater than 100 µM. The IC50 [2] was greater than 100 µM.

`COc1cc([C@@H]2c3cc4c(cc3[C@@H](O[C@@H]3O[C@@H]5CO[C@@H](C)O[C@H]5[C@H](O)[C@H]3O)[C@H]3COC(=O)[C@H]23)OCO4)cc(OC)c1O` [ETOPOSIDE] showed an IC50 [1] of 0.3 µM, an IC50 (MDA-MB-231) of 7.7 µM and an IC50 (A549) of 0.4 µM. For the same compound, the IC50 [2] was 2.8 µM.

Compound `Nc1ccn([C@@H]2O[C@H](CO)[C@@H](O)[C@@H]2O)c(=O)n1` [CYTARABINE] has an IC50 (PC-3) of 50.5 µM, an IC50 [1] of 3.98 µM and an IC50 (MDA-MB-231) of 1.37 µM. The IC50 (HCT-116) was 2.42 µM, the IC50 (A549) was 1.2 µM and the IC50 [2] was 2.12 µM.

In the case of `Nc1ncnc2c1ccn2[C@@H]1C(F)=C(CO)[C@@H](O)[C@H]1O`, the Activity [3] is reported as “Non-toxic”, the IC50 (PC-3) is reported as 1.3 µM and the IC50 [1] is reported as 0.96 µM. For the same compound, the IC50 (MDA-MB-231) was 0.94 µM, the EC50 (Picornaviridae) was 2.34 µM and the IC50 (HCT-116) was 0.94 µM. It also gave an IC50 (A549) of 16.8 µM, an IC50 (Adenosylhomocysteinase) greater than 100 µM and an IC50 [2] of 1.39 µM.

In the case of `CNc1ncnc2c1ccn2[C@@H]1C(F)=C(CO)[C@@H](O)[C@H]1O`, the IC50 (PC-3) is reported as greater than 100 µM, the IC50 [1] is reported as greater than 100 µM and the IC50 (MDA-MB-231) is reported as greater than 100 µM. For the same compound, the IC50 (HCT-116) was greater than 100 µM, the IC50 (A549) was greater than 100 µM and the IC50 (Adenosylhomocysteinase) was greater than 100 µM. For the same compound, the IC50 [2] was greater than 100 µM.

`OCC1=C(F)[C@@H](n2ccc3c(O)ncnc32)[C@H](O)[C@@H]1O` showed an IC50 (PC-3) greater than 100 µM, an IC50 [1] greater than 100 µM and an IC50 (MDA-MB-231) greater than 100 µM. For the same compound, the IC50 (HCT-116) was greater than 100 µM, the IC50 (A549) was greater than 100 µM and the IC50 (Adenosylhomocysteinase) was greater than 100 µM. The IC50 [2] was greater than 100 µM.

Compound `Nc1nccc2c1ncn2[C@@H]1C=C(CO)[C@@H](O)[C@H]1O` has an IC50 (PC-3) of 9.39 µM, an IC50 [1] of 0.91 µM and an IC50 (MDA-MB-231) of 0.3 µM. It also gave an IC50 (HCT-116) of 0.26 µM, an IC50 (A549) of 1.4 µM and an IC50 [2] of 0.72 µM.

In the case of `Nc1ncnc2c1ccn2C1C=C(CO)[C@@H](O)[C@H]1O` (single isomer, unassigned) [DEAZANEPLANOCIN A], the IC50 (PC-3) is reported as 1.62 µM, the IC50 [1] is reported as 1.2 µM and the IC50 (MDA-MB-231) is reported as 0.79 µM. It also gave an IC50 (HCT-116) of 10.4 µM, an IC50 (A549) of 1.84 µM and an IC50 (Adenosylhomocysteinase) greater than 100 µM. For the same compound, the IC50 [2] was 1.17 µM.

In the case of `Nc1ncnc2c1ncn2[C@@H]1C(F)=C(CO)[C@@H](O)[C@H]1O` [FLUORO-NEPLANOCIN A], the IC50 (PC-3) is reported as 1.4 µM, the IC50 [1] is reported as 2.2 µM and the Activity (HeLa) is reported as “Non-toxic”. It also gave an IC50 (MDA-MB-231) of 1.4 µM, an IC50 (HCT-116) of 2.8 µM and an IC50 (A549) of 1.2 µM. The EC50 [4] was 0.43 µM, the IC50 (Adenosylhomocysteinase) was 0.24 µM and the IC50 [2] was 0.8 µM.

`Nc1ncnc2c1ncn2[C@@H]1C(F)=C(CCO)[C@@H](O)[C@H]1O` showed an IC50 (PC-3) greater than 100 µM, an IC50 [1] of 3.73 µM and an IC50 (MDA-MB-231) of 6.95 µM. It also gave an IC50 (HCT-116) of 2.9 µM, an IC50 (A549) of 11.7 µM and an IC50 (Adenosylhomocysteinase) of 0.91 µM. The IC50 [2] was 8.07 µM.

Work on `Nc1ncnc2c1ncn2[C@@H]1C=C(CCO)[C@@H](O)[C@H]1O` yielded an IC50 (PC-3) greater than 100 µM, an IC50 [1] of 2.31 µM and an IC50 (MDA-MB-231) of 2.64 µM. It also gave an IC50 (HCT-116) of 1.72 µM, an IC50 (A549) of 8.95 µM and an IC50 [2] of 6.12 µM.

For `Nc1ncnc2c1ccn2[C@@H]1C=C(CCO)[C@@H](O)[C@H]1O`, the IC50 (PC-3) was greater than 100 µM, the IC50 [1] was 30.2 µM and the IC50 (MDA-MB-231) was 26.3 µM. The IC50 (HCT-116) was 32 µM, the IC50 (A549) was 34 µM and the IC50 (Adenosylhomocysteinase) was greater than 100 µM. For the same compound, the IC50 [2] was 42.1 µM.

Compound `Nc1nccc2c1ncn2[C@@H]1C=C(CCO)[C@@H](O)[C@H]1O` has an IC50 (PC-3) greater than 100 µM, an IC50 [1] of 28.2 µM and an IC50 (MDA-MB-231) of 8.01 µM. It also gave an IC50 (HCT-116) of 17.9 µM, an IC50 (A549) of 76.5 µM and an IC50 (Adenosylhomocysteinase) of 3.76 µM. The IC50 [2] was 28.9 µM.

`Nc1ncnc2c1ncn2[C@@H]1C=C(CO)[C@@H](O)[C@H]1O` [NEOPLANOCIN A] gave an IC50 (PC-3) of 3.7 µM, an IC50 [1] of 0.7 µM and an IC50 (MDA-MB-231) of 0.4 µM. For the same compound, the IC50 (HCT-116) was 0.9 µM, the IC50 (A549) was 1.22 µM and the IC50 (Adenosylhomocysteinase) was 0.47 µM. It also gave an IC50 [2] of 4.5 µM.
